According to patent US5059607A, “Imidazolyl benzisoquinolines useful as 5-HT3 receptor antagonists” (Ono-Pharmaceutical Co., Ltd., priority 1989, dated 1991):
Structures can show the parent of a compound that is named as a salt. Where two headings read alike, the source gives them in different places.

What was measured:
[1] = target: T1, 5-HT3 receptor (Rattus norvegicus, UniProt P35563); test: Antagonistic activity against 5-HT3 receptor in vivo in rats (suppression of 5-HT-induced reflex bradycardia); settings: urethane-anesthetized male Wister rat
T1 construct: 5-HT3 receptor in vivo in rats; from tissue; host or cells: whole anesthetized male Wistar rat (in vivo; endogenous receptor, no preparation isolated)
T1 sequence (P35563 24-483): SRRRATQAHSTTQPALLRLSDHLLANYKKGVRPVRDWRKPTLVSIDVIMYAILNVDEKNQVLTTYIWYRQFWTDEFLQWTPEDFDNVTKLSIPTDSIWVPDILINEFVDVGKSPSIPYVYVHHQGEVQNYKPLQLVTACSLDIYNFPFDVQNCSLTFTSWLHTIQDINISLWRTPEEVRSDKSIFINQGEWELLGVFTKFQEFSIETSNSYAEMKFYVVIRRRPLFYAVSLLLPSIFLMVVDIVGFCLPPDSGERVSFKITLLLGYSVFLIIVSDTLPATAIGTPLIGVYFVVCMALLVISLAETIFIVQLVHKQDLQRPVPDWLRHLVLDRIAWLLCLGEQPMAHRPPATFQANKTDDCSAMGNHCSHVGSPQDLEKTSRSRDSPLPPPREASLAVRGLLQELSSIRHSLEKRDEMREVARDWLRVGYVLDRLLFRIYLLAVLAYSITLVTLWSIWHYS
Protocol: Male Wister rat was urethane-anesthetized and fixed. Cannulas were inserted in the carotid artery and in the thigh vein as used for the recording of blood pressure and heart beat, and for the administration of the test compounds, respectively.
Several amounts of a compound of the present invention were administered from the vein or to the duodenum. 5-HT was administered rapidly to the vein, 2 mins. after administration of the compound of the present invention.

[2] = Acute toxicity (LD50) in mice; settings: mouse, in vivo
[3] = iv, 5-HT i.v. 2 mins after compound, read-out: IC50 i.v. (antagonistic activity against 5-HT3 receptor in vivo in rats)

| Compound | ED50 [1, 3] [µg/kg] | LD50 ([2]; intravenous administration, read-out: acute toxicity (LD50), intravenous) [µg/kg] | LD50 ([2]; oral administration, read-out: acute toxicity (LD50), oral) [µg/kg] | ED50 ([1]; i.d. (to the duodenum), read-out: ID50 i.d. (antagonistic activity against 5-HT3 receptor in vivo in rats)) [µg/kg] |
| --- | --- | --- | --- | --- |
| Cc1[nH]cnc1Cn1ccc2cc(Br)c3ccccc3c2c1=O.Cl [1(g), 2-(5-methylimidazol-4-ylmethyl)-6-bromo-1,2-dihydrobenz[1,2-h]isoquinolin-1-one hydrochloride] | 5.87 |  |  |  |
| Cc1[nH]cnc1Cn1ccc2ccc3ccccc3c2c1=O.Cl [Example 1, 2-(5-methylimidazol-4-yl-methyl)-1,2-dihydrobenz[1,2-h]isoquinolin-1-one hydrochloride] | 0.29 | 94000 | > 800000 | 7.5 |
| Cc1[nH]cnc1Cn1ccc2c(C)cc3ccccc3c2c1=O [1(e), 2-(5-methylimidazol-4-ylmethyl)-5-methyl-1,2-dihydrobenz[1,2-h]isoqionolin-1-one hydrochloride] | 1.19 |  |  |  |
| Cc1[nH]cnc1Cn1ccc2cc(C)c3ccccc3c2c1=O.Cl [1(d), 2-(5-methylimidazol-4-ylmethyl)-6-methyl-1,2-dihydrobenz[1,2-h]isoquinolin-1-one hydrochloride] | 0.89 |  |  |  |
| COc1cc2ccccc2c2c(=O)n(Cc3nc[nH]c3C)ccc12.Cl [1(a), 2-(5-methylimidazol-4-ylmethyl)-5-methoxy-1,2-dihydrobenz[1,2-h]isoquinolin-1-one hydrochloride] | 2.4 |  |  |  |
| Cc1[nH]cnc1Cn1ccc2c(O)cc3ccccc3c2c1=O.Cl [Example 1(f), 2-(5-methylimidazol-4-ylmethyl)-5-hydroxy-1,2-dihydrobenz[1,2-h]isoquinolin-1-one hydrochloride] | 0.62 |  |  |  |
